From patent publication EP2876156A1 (COMMISSARIAT A L'ENERGIE ATOMIQUE ET AUX ENERGIES …, priority 2013, dated 2015)

Columns and labels:
[1] = target: T1, ENZ5 (SEQ ID NO:9) (Niastella koreensis, UniProt G8T8D0); assay: Hydroxylation capability, HPLC analysis of reaction media after derivatization; assay type: biochemical
T1 construct: His6 (hexahistidine, inserted after the initial methionine) (N); made in house; host or cells: E. coli BL21(DE3) plysE
T1 sequence (G8T8D0 1-371): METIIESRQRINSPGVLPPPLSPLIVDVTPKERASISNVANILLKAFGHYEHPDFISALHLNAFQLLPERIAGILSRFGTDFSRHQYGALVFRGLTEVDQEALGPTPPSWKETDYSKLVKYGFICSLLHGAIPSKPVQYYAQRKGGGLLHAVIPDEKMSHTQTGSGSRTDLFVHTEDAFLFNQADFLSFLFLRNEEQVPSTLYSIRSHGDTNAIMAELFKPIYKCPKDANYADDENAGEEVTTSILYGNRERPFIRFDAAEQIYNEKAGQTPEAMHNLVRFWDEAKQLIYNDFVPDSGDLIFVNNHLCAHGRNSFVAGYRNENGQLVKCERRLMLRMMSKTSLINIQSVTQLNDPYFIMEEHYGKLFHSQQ
Description: (§1) Enzymes (0.08 mg/mL) were screened against substrates (molar ratio α-ketoglutarate/substrate 15/10) in Hepes buffer 50 mM pH 7,5, with Mohr's salt at 1mM and without sodium ascorbate, at room temperature for three hours. The potential conversions of the substrates were determined by HPLC after Fmoc-Cl derivatization as section III here above.
(§2) The hydroxylation capability of two other enzymes, namely ENZ6 (SEQ ID NO:10) and ENZ5 (SEQ ID NO:9) were also assessed. The amino sequence of ENZ6 has 79% of amino acid identity with SEQ ID NO:2 of ENZ2 while the amino sequence of ENZ5 has 72% of amino acid identity with SEQ ID NO:3 of ENZ3. […] As shown in part VI, ENZ6 and ENZ5 provide (4R)-hydroxy-L-lysine from L-lysine similarly to ENZ2 and ENZ3. Thus ENZ6 and ENZ5 are likely to have the same substrate selectivity and provide similar products as ENZ2 and ENZ3.

[2] = target: T2, ENZ6 (SEQ ID NO:10) (Flavobacterium sp., UniProt J3BZS6); assay: as above; assay type: biochemical
T2 construct: His6 (hexahistidine, inserted after the initial methionine) (N); made in house; host or cells: E. coli BL21(DE3) plysE
T2 sequence (J3BZS6 whole entry): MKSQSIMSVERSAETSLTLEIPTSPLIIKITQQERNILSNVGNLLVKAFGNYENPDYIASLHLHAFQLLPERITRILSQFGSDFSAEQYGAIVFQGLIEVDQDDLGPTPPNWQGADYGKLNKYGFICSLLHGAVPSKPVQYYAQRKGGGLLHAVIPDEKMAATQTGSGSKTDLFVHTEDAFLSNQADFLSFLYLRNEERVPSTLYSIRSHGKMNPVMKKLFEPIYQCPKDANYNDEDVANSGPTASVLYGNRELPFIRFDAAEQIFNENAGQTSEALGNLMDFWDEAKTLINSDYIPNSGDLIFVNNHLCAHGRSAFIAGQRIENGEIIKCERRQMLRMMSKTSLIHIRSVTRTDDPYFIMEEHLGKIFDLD
Description: as §1, §2

[3] = system: Decarboxyl (or Decarboxy2); assay: Enzymatic hydroxylation followed by decarboxylation to hydroxylated diamino alkanes, conversion by HPLC (protocol A); assay type: biochemical, Flavobacterium johnsoniae; Chitinophaga pinensis; conditions: L-lysine or L-ornithine hydroxylated (part V conditions), then PLP, DTT and Decarboxy1 (or Decarboxy2) added, 18h at 37 °C; HPLC after Fmoc-Cl derivatization
Description: The conversions were determined by HPLC after Fmoc-Cl derivatization (protocol A). Atlantis T3 (3µm 4.5*150 mm) at 35°C with the gradient 50-86% eluent B (MeCN + 0.1% TFA) and eluent A (H2O + 0.1% TFA) in 20 min at 1 mL/min […].
L-lysine was converted into (3S)-3-hydroxy-L-lysine by ENZ1 in conditions described in part V.
30 µL pyridoxal 5'-phosphate (PLP) 10 mM, 3 µL dithiothreitol (DTT) 100 mM and Decarboxyl (or Decarboxy2) 50 µL 1.5 mg/mL were then added in the reaction medium. The mixture was stirred (1000 rpm) for 18h at 37 °C.
Lysine was converted into (4R)-4-hydroxy-L-lysine in conditions described in part V 30 µL PLP 10 mM, 3 µL DTT 100 mM and Decarboxyl(or Decarboxy2) 50 µL 1.5 mg/mL were then added in the reaction medium to perform decarboxylation. The mixture was stirred (1000 rpm) for 18h at 37 °C.
The mixture was stirred (1000 rpm) for 18h at 37 °C.
Lysine was converted into (3R,4R)-3,4-dihydroxy-L-lysine in conditions described in part V, by cascade reaction with ENZ1 (SEQ NO:1) and ENZ2 (SEQ NO:2).
The volume of the reaction medium was reduced to 180 µL using a speedvac. 26 µL PLP 10 mM, 2.6 µL DTT 100 mM and Decarboxyl (or Decarboxy2) 50 µL (lysat) were then added to perform decarboxylation. The mixture was stirred (1000 rpm) for 18h at 37 °C.

[4] = target: T3, ENZ4 SEQ ID NO:4 (Catenulispora acidiphila, UniProt C7Q942); assay: Substrate selectivity screening of hydroxylase (conversion by HPLC after Fmoc-Cl derivatization); assay type: biochemical; conditions: enzyme 0.08 mg/mL, molar ratio α-ketoglutarate/substrate 15/10, Hepes buffer 50 mM pH 7,5, Mohr's salt 1mM, without sodium ascorbate, room temperature, three hours
T3 construct: His6 (hexahistidine, inserted after the initial methionine) (N); made in house; host or cells: E. coli BL21(DE3) plysE
T3 sequence (C7Q942 1-343): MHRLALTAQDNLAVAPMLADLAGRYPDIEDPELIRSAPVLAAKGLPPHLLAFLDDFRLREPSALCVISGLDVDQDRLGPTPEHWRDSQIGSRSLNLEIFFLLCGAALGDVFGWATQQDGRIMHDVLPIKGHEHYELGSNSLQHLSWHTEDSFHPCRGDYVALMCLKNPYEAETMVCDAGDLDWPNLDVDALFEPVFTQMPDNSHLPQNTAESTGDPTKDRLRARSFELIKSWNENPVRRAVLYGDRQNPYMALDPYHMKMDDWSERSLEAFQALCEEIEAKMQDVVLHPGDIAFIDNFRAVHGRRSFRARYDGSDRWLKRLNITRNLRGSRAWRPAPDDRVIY
Description: (§3) Enzymatic reaction medium (0.2 µmole, leq.), borate buffer 0,2M pH 7.7 (80 µL) and Fmoc-Cl solution7.5 mM in acetone (100 µL, 0.75 µmole, 3.75 eq) were hand shaked in a closed 1.50 mL eppendorf for one minute. The aqueous layer was extracted with petroleum ether (3*1 mL) to eliminate excess of Fmoc-Cl. 70 µL of the aqueous phase were withdrawn, diluted with 70 µL of acetonitrile and injected into the HPLC. For substrates with two amine functions, 100 µL of Fmoc-Cl solution 15 mM were used.
(§4) Conditions for HPLC analysis: Atlantis® T3 (3 µm 4.5*150 mm) at 35°C with the gradient 50-86% eluent B (MeCN + 0.1% TFA) and eluent A (H2O + 0.1% TFA) in 20 min at 1 mL/min.
as §1

[5] = target: T4, ENZ1 SEQ ID N°1 (Catenulispora acidiphila, UniProt C7QJ42); assay: as above; assay type: biochemical; conditions: enzyme 0.08 mg/mL, molar ratio α-ketoglutarate/substrate 15/10, Hepes buffer 50 mM pH 7,5, Mohr's salt 1mM, without sodium ascorbate, room temperature, three hours
T4 construct: His6 (hexahistidine, inserted after the initial methionine) (N); made in house; host or cells: E. coli BL21(DE3) plysE
T4 sequence (C7QJ42 1-358): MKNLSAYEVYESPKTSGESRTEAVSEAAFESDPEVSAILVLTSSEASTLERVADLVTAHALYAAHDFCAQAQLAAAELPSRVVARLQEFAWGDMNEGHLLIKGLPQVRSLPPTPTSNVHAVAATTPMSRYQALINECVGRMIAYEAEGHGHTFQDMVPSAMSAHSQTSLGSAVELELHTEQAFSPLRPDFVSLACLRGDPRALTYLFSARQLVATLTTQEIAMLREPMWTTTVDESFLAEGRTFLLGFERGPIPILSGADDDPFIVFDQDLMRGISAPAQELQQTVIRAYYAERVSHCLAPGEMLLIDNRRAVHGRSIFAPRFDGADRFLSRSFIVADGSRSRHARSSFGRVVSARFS
Description: as §3, §4, §1

[6] = target: T5, ENZ3 SEQ ID NO:3 (Chitinophaga pinensis, UniProt C7PLM6); assay type: biochemical; conditions: enzyme 0.08 mg/mL, molar ratio α-ketoglutarate/substrate 15/10, Hepes buffer 50 mM pH 7,5, Mohr's salt 1mM, without sodium ascorbate, room temperature, three hours
T5 construct: His6 (hexahistidine, inserted after the initial methionine) (N); made in house; host or cells: E. coli BL21(DE3) plysE
T5 sequence (C7PLM6 1-382): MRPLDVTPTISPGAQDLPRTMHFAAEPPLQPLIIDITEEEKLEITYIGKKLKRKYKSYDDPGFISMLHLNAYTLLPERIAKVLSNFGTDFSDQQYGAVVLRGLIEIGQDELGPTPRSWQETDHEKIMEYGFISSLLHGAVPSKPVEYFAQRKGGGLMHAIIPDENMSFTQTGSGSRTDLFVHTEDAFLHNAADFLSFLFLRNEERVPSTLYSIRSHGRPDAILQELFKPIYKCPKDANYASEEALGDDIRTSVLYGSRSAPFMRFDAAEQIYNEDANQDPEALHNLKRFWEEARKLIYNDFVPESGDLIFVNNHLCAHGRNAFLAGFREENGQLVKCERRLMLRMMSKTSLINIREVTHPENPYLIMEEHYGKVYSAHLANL
Description: as §3, §4, §1

[7] = target: T6, ENZ2 SEQ ID NO:2 (Flavobacterium johnsoniae, UniProt A5FF23); assay type: biochemical; conditions: enzyme 0.08 mg/mL, molar ratio α-ketoglutarate/substrate 15/10, Hepes buffer 50 mM pH 7,5, Mohr's salt 1mM, without sodium ascorbate, room temperature, three hours
T6 construct: His6 (hexahistidine, inserted after the initial methionine) (N); made in house; host or cells: E. coli BL21(DE3) plysE
T6 sequence (A5FF23 1-370): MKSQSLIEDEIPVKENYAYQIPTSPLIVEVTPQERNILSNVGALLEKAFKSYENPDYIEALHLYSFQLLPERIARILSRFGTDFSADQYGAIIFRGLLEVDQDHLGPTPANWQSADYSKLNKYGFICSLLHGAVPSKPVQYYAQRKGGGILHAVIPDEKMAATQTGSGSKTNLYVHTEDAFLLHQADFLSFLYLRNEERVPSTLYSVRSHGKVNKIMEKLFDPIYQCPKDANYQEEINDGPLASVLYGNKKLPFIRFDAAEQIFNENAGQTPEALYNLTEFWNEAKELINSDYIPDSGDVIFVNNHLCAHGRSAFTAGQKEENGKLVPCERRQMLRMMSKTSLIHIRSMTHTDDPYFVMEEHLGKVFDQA
Description: as §3, §4, §1

[8] = target: T3, ENZ4 SEQ ID NO:4; assay: Enzymatic hydroxylation of L-ornithine and L-arginine, 10 mL scale, conversion by HPLC; assay type: biochemical; conditions: ENZ4 0.595 mg/mL, without sodium ascorbate, room temperature, 18h; HPLC after FDAA derivatization (protocol B)
Description: 70 µL of the aqueous phase were withdrawn, diluted with 70 µL of acetonitrile and injected into the HPLC. […]
as §4

## NCCC[C@H](N)C(=O)O [L-ornithine]
[1]
  hydroxylation capability of ENZ5: not able to convert
[2]
  hydroxylation capability of ENZ6: not able to convert

## NCC[C@@H](O)[C@H](O)CN [(2R,3R)-1,5-diamino-2,3-pentanediol]
[3]
  Conversion: > 90%

## NCC[C@H](O)CN [(2S)-1,4-diamino-2-butanol]
[3]
  Conversion: 50%

## NCCC[C@H](O)CN [(2S)-1,5-diamino-2-pentanol]
[3]
  Conversion: > 95%

## N=C(N)NCCC[C@H](N)C(=O)O [L-arginine]
[4]
  potential conversions of the substrates, ENZ4 SEQ ID NO:4: positive
[5]
  potential conversions of the substrates, ENZ1 SEQ ID N°1: negative
[6]
  potential conversions of the substrates, ENZ3 SEQ ID NO:3: negative
[7]
  potential conversions of the substrates, ENZ2 SEQ ID NO:2: negative
[8]
  conversion of L-arginine into hydroxylated product: 50%

## NCCC(O)CCN [1,5-diamino-3-pentanol]
[3]
  Conversion: 100%
